For test [1], the system named is castration resistant prostate tumors of Pten^pc−/− mice. In words: Preclinical trial in castration-resistant Pten^pc−/− mice (αIL23, ENZA, ENZA+αIL23). It is filed as in vivo, mouse. The settings on record: ENZA 30 mg/kg/day oral alone. As to the method:
All mice were maintained under specific pathogen-free conditions in the IRB facility and experiments were performed according to state guidelines and approved by the local ethics committee. Male C57BL/6 or FVB mice 6-8 weeks of age were purchased from Jackson Laboratories (Envigo), and acclimated for at least a week before use. C57BL/6 IL-23p19KO (IL23ko) mice were kindly provided by Prof. Federica Sallusto (IRB, Bellinzona). Pten^pc−/− mice were generated and genotyped as previously described. Female Pten^loxP/loxP mice were crossed with male PB-Cre4 transgenic mice and genotyped for Cre using following primers: primer 1 (5′-[…]-3′) and primer 2 (5′-[…]-3′) for PTEN^loxP/loxP; primer 1 (5′ […] 3′) and primer 2 (5′CAGCCACCAGCTTGCATGA 3′) for Probasin-CRE. Surgical castration was performed under anesthesia with isoflurane. Mice were monitored postoperatively for recovery from anesthesia and checked daily for 2 days postoperatively. Surgical skin clips were removed on postoperative day 5. […] Tumor growth was monitored daily by measuring the tumor size with caliper. […]
For immunohistochemistry (IHC), tissues were fixed in 10% formalin (ThermoScientific, 5701) and embedded in paraffin in accordance with standard procedures. […] All the quantifications have been done using the public online software ImmunoRatio (153.1.200.58:8080/iimunoratio/). […]

Test [2] has as its system prostate tumors of CTX Pten^pc−/− mice. The experiment in a line: CXCR2 antagonist treatment of surgically castrated Pten^pc−/− mice. It is filed as in vivo, mouse. As to the method: All mice were maintained under specific pathogen-free conditions in the IRB facility and experiments were performed according to state guidelines and approved by the local ethics committee. Male C57BL/6 or FVB mice 6-8 weeks of age were purchased from Jackson Laboratories (Envigo), and acclimated for at least a week before use. C57BL/6 IL-23p19KO (IL23ko) mice were kindly provided by Prof. Federica Sallusto (IRB, Bellinzona). Pten^pc−/− mice were generated and genotyped as previously described. […] Mice were monitored postoperatively for recovery from anesthesia and checked daily for 2 days postoperatively. […] Tumor growth was monitored daily by measuring the tumor size with caliper. […]
Tumors were disaggregated and digested in collagenase D and DNAse for 30 minutes at 37° C. to obtain single-cell suspension. […] Data were analyzed using FlowJo software (TreeStar, Ashland, Oreg.).
(§1) RNA isolation (TRIzol, Qiagen) and retro-transcription with SuperScriptIII (Invitrogen, 11752-250) were performed according to the manufacturer's instructions. Quantitative PCR (qPCR) reactions (Bio-Rad) were performed using KAPA SYBR FAST qPCR green (KK4605; Applied Biosystems) and the specific primers reported below. […]

In test [3] the test system is TRAMP-C1 cells. In words: CXCR2 antagonist treatment of castrated TRAMP-C1 allograft mice. It is filed as in vivo, mouse. As for the experimental part:
(§2) All mice were maintained under specific pathogen-free conditions in the IRB facility and experiments were performed according to state guidelines and approved by the local ethics committee. Male C57BL/6 or FVB mice 6-8 weeks of age were purchased from Jackson Laboratories (Envigo), and acclimated for at least a week before use. C57BL/6 IL-23p19KO (IL23ko) mice were kindly provided by Prof. Federica Sallusto (IRB, Bellinzona). Pten^pc−/− mice were generated and genotyped as previously described. Female Pten^loxP/loxP mice were crossed with male PB-Cre4 transgenic mice and genotyped for Cre using following primers: primer 1 (5′-[…]-3′) and primer 2 (5′-[…]-3′) for PTEN^loxP/loxP; primer 1 (5′ […] 3′) and primer 2 (5′CAGCCACCAGCTTGCATGA 3′) for Probasin-CRE. Surgical castration was performed under anesthesia with isoflurane. Mice were monitored postoperatively for recovery from anesthesia and checked daily for 2 days postoperatively. Surgical skin clips were removed on postoperative day 5. Mice undergoing treatment were administered control vehicle or therapeutic doses of the appropriate agents. Any mouse suffering distress or greater than 15% weight loss during treatment was euthanized by CO2 asphyxiation. At the completion of study, mice were euthanized by CO2 asphyxiation and tissue was collected for histology, mRNA analysis, protein analysis, and single cell suspensions for flow cytometry. For allograft experiments, 2.5×10^6 TRAMP-C1 cells, 2.5×10^6 TRAMP-C1 IL23RKO, or 2×10^6 MyC-CaP cells were injected subcutaneously into the flank of male respectively C57BL/6 or FVB mice. When tumors were approximately 100 mm^3, mice were randomized to the treatment groups. Tumor growth was monitored daily by measuring the tumor size with caliper. The tumor volume was estimated by calculating R1*R2*R3*4/3π, where R1 and R2 are the longitudinal and lateral radii, and R3 is the thickness of tumor protruding from the surface of normal skin. Animals were sacrificed when the tumor reached approximately 600 mm^3.
(§3) αCXCR2 (AZD5069; AstraZeneca) was administered with daily intraperitoneal injections at a final concentration of 100 mg/kg on a Monday through Friday schedule. Control animals received vehicle. Enzalutamide (APExBio) was administered daily by oral gavage with a dose of 30 mg/kg/day on a Monday through Friday schedule. Rat anti-IL23 antibody (100 ng per mouse; G23-8; IgG1, kappa; eBioscience) or rat IgG1 isotype control (eBioscience) were administered weekly via intraperitoneal injection.
(§4) Tumors were disaggregated and digested in collagenase D and DNAse for 30 minutes at 37° C. to obtain single-cell suspension. For intracellular cytokine detection cells where stimulated for 5 hours with PMA/ionomycin. After neutralization of unspecific binding with αCD16/CD32 (clone 93), single-cell suspensions were stained with specific mAb (primary antibodies directly conjugated) to assess the phenotype. […] Data were analyzed using FlowJo software (TreeStar, Ashland, Oreg.).
as §1

A further test has as its system MyC-CaP cells. The experiment in a line: CXCR2 antagonist treatment of castrated MyC-CaP allograft mice. It is filed as in vivo, mouse. As for the experimental part: as §2, §3, §4, §1
The subject of test [4] is TRAMP-C1 cells. The experiment in a line: In vitro culture of prostate cancer cells under full androgen deprivation (F.A.D.). It is filed as cell-based, mouse. As for the experimental part: Prostate cancer cell lines were starved in Charcoal Stripped FBS (CS-FBS) medium for 72 h and then cultured with RPMI 1640 containing 10% heat-inactivated FBS (normal medium) or kept in full androgen deprivation medium (RPMI 1640 containing 10% heat-inactivated Charcoal Stripped-FBS plus Enzalutamide 10 μM; F.A.D.). Then, the cells were stimulated with or without condition media obtained from activated BM-derived MDSCs, or recombinant IL23 (100 ng/ml; R&D System), with or without αRORγ (5 μM; SR2211; Calbiochem®). Then, the cells were analyzed for Crystal Violet assay or stained with Annexin V/7AAD or collected for RNA extraction.
RNA isolation (TRIzol, Qiagen) and retro-transcription with SuperScriptIII (Invitrogen, 11752-250) were performed according to the manufacturer's instructions. Quantitative PCR (qPCR) reactions (Bio-Rad) were performed using KAPA SYBR FAST qPCR green (KK4605; Applied Biosystems) and the specific primers reported below. Primer sequences were obtained from PrimerBank (http://pga.mgh.harvard.edu/primerbank/index.html) or BIORAD. Each expression value was normalized by HPRT or GADPH level as reference.

These results are taken from patent publication US11168134B2, “Methods of treating androgen deprivation therapy resistant prostate cancer” (Fondazione per l'Istituto Oncologico di Ricerca (IOR), priority 2018, dated 2021).

With `CNC(=O)c1ccc(N2C(=S)N(c3ccc(C#N)c(C(F)(F)F)c3)C(=O)C2(C)C)cc1F` [ENZA, Enzalutamide], the “treatment effect (glands, tumor volume, proliferation)” value in test [1] is listed as “ineffective”.

As to `C[C@@H](Oc1cc(NS(=O)(=O)N2CCC2)nc(SCc2cccc(F)c2F)n1)[C@@H](O)CO` [AZD5069], the “tumor infiltration of PMN-MDSCs” value in test [2] (AZD5069 100 mg/kg i.p. daily Monday-Friday, flow cytometry (FIG. 6f)) is reported as “strongly reduced the tumor infiltration of PMN-MDSCs”; in the test on TRAMP-C1 cells [3] (castrated C57BL/6 mice with s.c. TRAMP-C1 tumors, AZD5069 100 mg/kg i.p., flow cytometry (FIG. 7a)), “strongly reduced the tumor infiltration of PMN-MDSCs”; in the test with MyC-CaP cells (castrated FVB mice with s.c. MyC-CaP tumors, AZD5069 100 mg/kg i.p., flow cytometry (FIG. 7e)), “strongly reduced the tumor infiltration of PMN-MDSCs”. The “progression to CRPC” value in test [2] (judged by tumor volume and levels of AR target genes, untreated mice developed CRPCs four months after castration) is listed as “did not progress to CRPCs”. Further, the “emergence of CRPC” value with TRAMP-C1 cells [3] (castrated TRAMP-C1 allograft mice) and in the test on MyC-CaP cells (castrated MyC-CaP allograft mice) was “delayed the emergence of CRPC” throughout. The tumor size entry with TRAMP-C1 cells [3] (castrated TRAMP-C1 allograft mice (FIG. 7c)) and in the test with MyC-CaP cells (castrated MyC-CaP allograft mice (FIG. 7g)) was “decreased tumor size” in each case. For the same molecule, the survival entry with TRAMP-C1 cells [3] (castrated TRAMP-C1 allograft mice, Kaplan-Meier (FIG. 7d)) was “longer survival”; in the test with MyC-CaP cells (castrated MyC-CaP allograft mice, Kaplan-Meier (FIG. 7h)) it was “longer survival”. For the same molecule, the “level of AR target genes in tumors” value in the test on TRAMP-C1 cells [3] (castrated TRAMP-C1 allograft mice, qRT-PCR (FIG. 7b)) is reported as “decreased”; with MyC-CaP cells (castrated MyC-CaP allograft mice, qRT-PCR (FIG. 7f)), “decreased”. Moreover, the “AR activity (AR target genes, qRT-PCR)” value with TRAMP-C1 cells [4] (TRAMP-C1 cells in F.A.D., 24 h of treatment with CXCR2 antagonist (FIG. 6i)) is “did not directly affect”. The cell proliferation entry in the test with TRAMP-C1 cells [4] (TRAMP-C1 cells in F.A.D., 72 h of treatment with CXCR2 antagonist (FIG. 6h)) was “did not directly affect”.

B1: recombinant IL23: recombinant IL23 (100 ng/ml; R&D System) (protein, UniProt Q9NPF7 20-189; P29460 23-328, looked up)
Interleukin-23 subunit alpha: RAVPGGSSPAWTQCQQLSQKLCTLAWSAHPLVGHMDLREEGDEETTNDVPHIQCGDGCDPQGLRDNSQFCLQRIHQGLIFYEKLLGSDIFTGEPSLLPDSPVGQLHASLLGLSQLLQPEGHHWETQQIPSLSPSQPWQRLLLRFKILRSLQAFVAVAARVFAHGAATLSP
Interleukin-12 subunit beta: IWELKKDVYVVELDWYPDAPGEMVVLTCDTPEEDGITWTLDQSSEVLGSGKTLTIQVKEFGDAGQYTCHKGGEVLSHSLLLLHKKEDGIWSTDILKDQKEPKNKTFLRCEAKNYSGRFTCWWLTTISTDLTFSVKSSRGSSDPQGVTCGAATLSAERVRGDNKEYEYSVECQEDSACPAAEESLPIEVMVDAVHKLKYENYTSSFFIRDIIKPDPPKNLQLKPLKNSRQVEVSWEYPDTWSTPHSYFSLTFCVQVQGKSKREKKDRVFTDKTSATVICRKNASISVRAQDRYYSSSWSEWASVPCS
As to B1, in the test on TRAMP-C1 cells [4] (TRAMP-C1 cells kept in F.A.D., recombinant IL23 100 ng/ml (FIG. 2f-g)), the “cell survival (AnnexinV/7AAD)” value is “promoted”. Besides, in the test with TRAMP-C1 cells [4] (TRAMP-C1 cells kept in F.A.D., recombinant IL23 100 ng/ml, 24 h, qRT-PCR (FIG. 2h)), the “transcription of androgen receptor target genes” value is given as “increased transcription of androgen receptor target genes”. The cell proliferation entry with TRAMP-C1 cells [4] (TRAMP-C1 cells kept in F.A.D., recombinant IL23 100 ng/ml, 72 h (FIG. 2e)) was “promoted proliferation”.
